# Test results from publication PMC5803421 (International journal of pharmaceutics, 2017).
# Tested on: anesthetized acute SCI female rats (bladder pressure)
# Experiment: Isovolumetric cystometry in anesthetized acute spinal cord injured rats
# Assay type: in vivo, rat
# Conditions: antagonist 1 mg/kg i.v. after ODT LMN-NKA (4.6 mg/kg)
compound,measurement,value
COC1(C[S@@+]([O-])c2ccccc2)CCN(CCc2c[nH]c3ccc(F)cc23)CC1 [GR 159898],effect on LMN-NKA ODT mediated increase in bladder pressure,readily reversed
